{"source": "patent US20220127297A1", "about": "“Novel Antibacterial 3\"-Derivatives Of 4,6-Disubstituted 2,5-Dideoxystreptamine Aminoglycoside Antibiotics” (AGILeBiotics B.V., priority 2018, published 2022)", "system": "clinical isolates of multidrug-resistant Klebsiella pneumoniae (and ATCC43816)", "assay": "MIC determination at Fidelta, clinical isolates", "assay_type": "cell-based", "conditions": "Klebsiella pneumoniae", "description": "3.4.2 MIC Determination at Fidelta (Croatia)\nTested reference compounds. Amikacin sulfate (Cat. No. 01693, Chem-Impex), Gentamicin sulfate (Cat. No. G4918, Sigma Aldrich), Ceftazidime Pentahydrate (Cat. No. 1098130, USP), Meropenem (Cat. No. 1392454, USP), Tobramycin (Cat. No. 1667508, USP).\nMicrobial strains. Klebsiella pneumoniae KP-1919 (abdomen), Klebsiella pneumoniae KP-1935 (urine), Klebsiella pneumoniae KP-1936 (abscess), Klebsiella pneumoniae KP-1937 (blood), Klebsiella pneumoniae KP-1942 (urine), Klebsiella pneumoniae KP-1944 (blood), Klebsiella pneumoniae KP-2027 (tracheal aspirate), Klebsiella pneumoniae KP-2029 (urine), Klebsiella pneumoniae KP-2030 (trachea), Klebsiella pneumoniae KP-2031 (skin), Klebsiella pneumoniae KP-2032 (urine), Klebsiella pneumoniae KP-2033 (urine), Klebsiella pneumoniae KP-2034 (urine), Klebsiella pneumoniae KP-2035 (urine), Klebsiella pneumoniae KP-2036 (urine), Klebsiella pneumoniae KP-2037 (urine), Klebsiella pneumoniae ATCC 43816, Pseudomonas aeruginosa PA-1948 (wound), Pseudomonas aeruginosa PA-1949 (urine), Pseudomonas aeruginosa PA-1950 (sputum), Pseudomonas aeruginosa PA-1952 (wound), Pseudomonas aeruginosa PA-1953 (urine), Pseudomonas aeruginosa PA-1954 (sputum), Pseudomonas aeruginosa PA-1967 (blood), Pseudomonas aeruginosa ATCC27853, Acinetobacter baumannii AB-1931 (urine), Acinetobacter baumannii AB-1932 (urine), Acinetobacter baumannii AB-2017 (bronchial aspirate), Acinetobacter baumannii AB-2018 (skin), Acinetobacter baumannii AB-2019 (bronchial aspirate), Acinetobacter baumannii AB-1964 (blood), Acinetobacter baumannii AB-2025 (skin), Acinetobacter baumannii AB-2026 (skin), Acinetobacter baumannii ATCC17978, methicillin-resistant Staphylococcus aureus MRSA-1995 (liquor), methicillin-resistant Staphylococcus aureus MRSA-1998 (wound), methicillin-resistant Staphylococcus aureus MRSA-1999 (skin), methicillin-resistant Staphylococcus aureus MRSA-2003 (wound), vancomycin-resistant Enterococcus faecium VRE-2005 (urine), vancomycin-resistant Enterococcus faecium VRE-2006 (urine), vancomycin-resistant Enterococcus faecium VRE-2007 (urine), vancomycin-resistant Enterococcus faecium VRE-2008 (urine), vancomycin-resistant Enterococcus faecium VRE-2009 (urine), vancomycin-resistant Enterococcus faecium VRE-2010 (urine), vancomycin-resistant Enterococcus faecium VRE-2011 (rectum), vancomycin-resistant Enterococcus faecium VRE-2012 (rectum), vancomycin-resistant Enterococcus faecium VRE-2013 (rectum).\nCulture media and equipment. BBL™ Mueller Hinton Broth (REF 275730, Lot. 7009699, Becton Dickinson); Mueller Hinton Agar 2 (Ref. No. 97580-500G-F, Lot. No. BCBV4646, Sigma); Cellstar, 96-well plates, U-bottom (Cat. No. 650180, Lot. No. E14123EB, Greiner Bio-one); 96-well deep well plate, 1 mL (Cat. No. 278606, Nunc); Incubator (Binder); Laminar flow (Thermo Scientific); BioPhotometer (Eppendorf); DEN-1B (McFarland Densitometer, Biosan); McFarland standards (polymer microparticle suspension, Biosan).\nCompound preparation. For testing, 5 mg/mL DMSO solutions of the test compounds and reference antibiotics were used. Out of these DMSO solutions, 43.5 μL was transferred to 1656.5 μL of MH media in a deep well plate. Out of these working solutions 100 μL was transferred to wells in the third column of 96-well plates. Plates are previously filled with 50 μL of MH media in all wells except for the wells in the third column. After compound and antibiotic addition, 50 μL was transferred from the third to the fourth column, then from the fourth to the fifth and so on. In this manner, the compounds and antibiotics were plated in 96-well plate in serial two-fold dilutions giving a final concentration range of 64-0.125 μg/mL.\nInoculum preparation. Designations used for clinical isolates were from Fidelta strain collection bank. Microorganisms used were all revived from skim milk storage at −70° C. by plating them on MH agar plates."}
{"compound": "NC[C@H]1O[C@H](O[C@H]2[C@H](O)[C@@H](O[C@H]3O[C@H](CO)[C@@H](O)[C@H](N)[C@H]3O)[C@H](N)C[C@@H]2N)[C@H](N)C[C@@H]1O", "note": "[Tobramycin, tobramycin]", "values": [{"measurement": "MIC90", "setting": "ATCC43816", "result": 0.125, "unit": "µg/mL"}, {"measurement": "MIC90", "setting": "ATCC43816, KP-1919, Abdomen/VIM, ESBL", "result": 32, "unit": "µg/mL"}, {"measurement": "MIC90", "setting": "ATCC43816, KP-1935, Urine/ESBL, NDM", "result": 32, "unit": "µg/mL"}, {"measurement": "MIC90", "setting": "ATCC43816, KP-1936, Abscess/NDM", "result": 16, "unit": "µg/mL"}, {"measurement": "MIC90", "setting": "ATCC43816, KP-1937, Blood/VIM, ESBL", "result": "> 64", "unit": "µg/mL"}, {"measurement": "MIC90", "setting": "ATCC43816, KP-1942, Urine (catheter)/VIM", "result": 16, "unit": "µg/mL"}, {"measurement": "MIC90", "setting": "ATCC43816, KP-1944, Blood/NDM", "result": 32, "unit": "µg/mL"}, {"measurement": "MIC90", "setting": "ATCC43816, KP-2027, Tracheal aspirate/ESBL, OXA-48, ColR", "result": 16, "unit": "µg/mL"}, {"measurement": "MIC90", "setting": "ATCC43816, KP-2029, Urine/ESBL, OXA-48", "result": 32, "unit": "µg/mL"}, {"measurement": "MIC90", "setting": "ATCC43816, KP-2030, Trachea/ESBL, OXA-48", "result": 64, "unit": "µg/mL"}, {"measurement": "MIC90", "setting": "ATCC43816, KP-2031, Skin/ESBL, OXA-48", "result": 32, "unit": "µg/mL"}, {"measurement": "MIC90", "setting": "ATCC43816, KP-2032, Urine/ESBL, OXA-48", "result": 16, "unit": "µg/mL"}, {"measurement": "MIC90", "setting": "ATCC43816, KP-2033, Urine/OXA-A8", "result": "> 64", "unit": "µg/mL"}, {"measurement": "MIC90", "setting": "ATCC43816, KP-2034, Urine/ESBL, OXA-48", "result": 32, "unit": "µg/mL"}, {"measurement": "MIC90", "setting": "ATCC43816, KP-2035, Urine/ESBL, OXA-48", "result": 64, "unit": "µg/mL"}, {"measurement": "MIC90", "setting": "ATCC43816, KP-2036, Urine/ESBL", "result": 16, "unit": "µg/mL"}, {"measurement": "MIC90", "setting": "ATCC43816, KP-2037, Urine/ESBL, OXA-48", "result": 16, "unit": "µg/mL"}]}
